The values that follow come from ChEMBL document CHEMBL5620383, “Advances in CD73 inhibitors for immunotherapy: Antibodies, synthetic small molecule compounds, and natural compounds” (Eur J Med Chem, 2023).

Experiment [1] concerns the target T1, 5'-nucleotidase (Homo sapiens, UniProt P21589). Description: Binding affinity to human recombinant CD73 assessed as inhibition constant.
The target in experiment [2] is T1, 5'-nucleotidase. Kind of experiment: Inhibition of C-terminal 6His-tagged human recombinant CD73 expressed in CHO cells incubated for 1 hr by malachite green based spectrophotometer assay. Type of experiment: cell-based.
Experiment [3] in a line: Reversal of adenosine induced reduction in IFNgamma production in human PBMC cells. Type of experiment: functional, cell-based.
In experiment [4] the target is T1, 5'-nucleotidase. Kind of experiment: Inhibition of human CD73 expressed in A-375 cells incubated for 15 mins by malachite green based spectrophotometer assay. The experiment is classed as cell-based.
The target of experiment [5] is T1, 5'-nucleotidase. Kind of experiment: Binding affinity to human recombinant CD73 expressed in Sf9 cells assessed as inhibition constant by malachite green based spectrophotometer assay.
The target of experiment [6] is T1, 5'-nucleotidase. Description: Binding affinity to CD73 (unknown origin) assessed as inhibition constant.
The target in experiment [7] is T1, 5'-nucleotidase. Description: Inhibition of CD73 (unknown origin).
In experiment [8] the test system is MDA-MB-231. Description: Cytotoxicity against human MDA-MB-231 cells assessed as reduction in cell growth at 20 uM incubated for 48 hrs by CCK-8 assay relative to control. Details: scale not given: the % may be the effect or the level left. Type of experiment: functional.
For experiment [9], the species on record is Homo sapiens. Description: Inhibition of adenosine transporter (unknown origin) at 20 uM relative to control.
The subject of experiment [10] is MDA-MB-231. Description: Inhibition of cell migration in human MDA-MB-231 cells at 10 uM incubated for 48 hrs by Transwell assay. Type of experiment: functional. Details: scale not given: the % may be the effect or the level left.
The test system of experiment [11] is 4T1. Description: Inhibition of cell migration in mouse 4T1 cells at 10 uM incubated for 48 hrs by Transwell assay. Type of experiment: functional. Details: scale not given: the % may be the effect or the level left.
In experiment [12] the target is T1, 5'-nucleotidase. Kind of experiment: Inhibition of CD73 (unknown origin) at 20 uM relative to control.
For experiment [13], the target named is T1, 5'-nucleotidase. Kind of experiment: Inhibition of human recombinant CD73 (27 to 549 residues) expressed in Sf9 cells.

T1 sequence (P21589 whole entry): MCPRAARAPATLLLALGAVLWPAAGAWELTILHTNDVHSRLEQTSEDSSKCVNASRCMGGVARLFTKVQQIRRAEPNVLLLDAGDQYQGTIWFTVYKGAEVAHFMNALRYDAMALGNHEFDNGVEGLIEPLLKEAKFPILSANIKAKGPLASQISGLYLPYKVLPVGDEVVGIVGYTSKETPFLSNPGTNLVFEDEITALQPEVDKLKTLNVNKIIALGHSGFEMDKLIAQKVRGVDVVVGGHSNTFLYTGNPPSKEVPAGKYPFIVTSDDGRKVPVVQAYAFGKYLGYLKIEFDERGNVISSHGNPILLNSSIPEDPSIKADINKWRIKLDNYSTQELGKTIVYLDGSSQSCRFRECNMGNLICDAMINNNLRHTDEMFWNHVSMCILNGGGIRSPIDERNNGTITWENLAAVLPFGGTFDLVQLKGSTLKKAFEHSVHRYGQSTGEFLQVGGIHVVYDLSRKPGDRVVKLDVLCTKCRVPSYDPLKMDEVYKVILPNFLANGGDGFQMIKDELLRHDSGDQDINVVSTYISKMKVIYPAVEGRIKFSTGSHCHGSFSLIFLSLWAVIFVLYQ

Turning to `CN(Cc1ccccc1F)c1nc(Cl)nc2c1ncn2[C@@H]1O[C@H](COP(=O)(O)OP(=O)(O)O)[C@@H](O)[C@H]1O`, the Ki in experiment [1] was determined as 0.318 nM.
For `O=P(O)(O)COC[C@H]1O[C@@H](n2ncc3c(N4CC5(CCc6ccccc65)C4)nc(Cl)nc32)[C@H](O)[C@@H]1O`, the IC50 in experiment [2] was 50 nM. The EC50 in experiment [3] is 110 nM.
Regarding `Nc1ncnc2c1ncn2[C@@H]1O[C@H](COP(=O)(O)OP(=O)(O)O)[C@@H](O)[C@H]1O` [ADENOSINE DIPHOSPHATE], in [1], the Ki worked out at 88.4 nM. Besides, in experiment [4], the IC50 was 3.8 nM.
As to `CCN(CC)c1nc(Cl)nc2c1ncn2[C@@H]1O[C@H](COCP(=O)(O)OP(=O)(O)C(Br)(Br)P(=O)(O)O)[C@@H](O)[C@H]1O`, the inhibitory constant (Ki) in experiment [5] was 451 nM.
Consider `C=C(C)[C@@H]1CC[C@]2(C(=O)O)CC[C@]3(C)[C@H](CC[C@@H]4[C@@]5(C)CC[C@H](O)C(C)(C)[C@@H]5CC[C@]43C)[C@@H]12` [BETULINIC ACID], for which the Ki in experiment [6] came to 7.8 µM.
`C=C(C)[C@@H]1CC[C@]2(C(=O)O)CC[C@]3(C)[C@H](CC[C@@H]4[C@@]5(C)CC[C@H](OC(=O)c6ccc(F)c(F)c6)C(C)(C)[C@@H]5CC[C@]43C)[C@@H]12` registered an IC50 in experiment [7] of 740 nM. Moreover, the Activity in experiment [8] is 87.59%.
Consider `C=C[C@]1(C)C[C@@H](OC(=O)CSCCN(CC)CC)[C@]2(C)[C@H](C)CC[C@]3(CCC(=O)[C@H]32)[C@@H](C)[C@@H]1O` [TIAMULIN], for which the inhibition in [9] came out at 85.7%. Also, the results for the Activity in [10] and in [11] were 76.2% and 67.01%, respectively.
The compound `C=C[C@]1(C)C[C@@H](OC(=O)CO)[C@]2(C)[C@H](C)CC[C@]3(CCC(=O)[C@H]32)[C@@H](C)[C@@H]1O` yielded an inhibition in [12] of 70%.
As to `COC[C@](CO)(OC[C@H]1O[C@@H](n2ncc3c(NC4CCCC4)nc(Cl)nc32)[C@H](O)[C@@H]1O)P(=O)(O)O`, the IC50 in experiment [2] amounted to 250 nM.
As for `Nc1ncnc2c1ncn2COCCOP(=O)(O)CP(=O)(O)O`, the Ki in [5] came to 12600 nM.
In [7], `C=C(C)[C@@H]1CC[C@]2(C(=O)O)CC[C@]3(C)[C@H](CC[C@@H]4[C@@]5(C)CC[C@H](OC(=O)c6c(F)c(F)c(F)c(F)c6F)C(C)(C)[C@@H]5CC[C@]43C)[C@@H]12` returned a concentration for half-maximal inhibition (IC50) of 470 nM.
On to `Cn1c(=O)n([C@@H]2O[C@H](COP(=O)(O)OP(=O)(O)O)[C@@H](O)[C@H]2O)cc/c1=N/Oc1ccccc1`, for which, in experiment [5], the Ki was 10.1 nM.
On to `O=P(O)(O)CP(=O)(O)CC(O)[C@H]1O[C@@H](n2ccnn2)[C@H](O)[C@@H]1O` (stereo not given in full), for which the concentration for half-maximal inhibition (IC50) in experiment [2] and in [13] was 860 nM in each case.
With `C=C(C)[C@@H]1CC[C@]2(C(=O)O)CC[C@]3(C)[C@H](CC[C@@H]4[C@@]5(C)CC[C@H](OC(=O)c6ccc(F)cc6)C(C)(C)[C@@H]5CC[C@]43C)[C@@H]12`, the IC50 in experiment [7] is 560 nM.
